Reference: patent publication US7544773B2 (priority 2003, dated 2009)

Target: Dr hemagglutinin (Escherichia coli, UniProt P24093)
Assay type: cell-based, E. coli

Dr hemagglutinin, sequence (P24093 22-160): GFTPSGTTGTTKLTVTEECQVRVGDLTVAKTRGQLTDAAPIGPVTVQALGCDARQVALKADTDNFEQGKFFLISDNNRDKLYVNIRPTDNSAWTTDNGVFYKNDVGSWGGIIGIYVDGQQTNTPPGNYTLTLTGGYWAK

Substance: TTGTTKL
- polymerisation of Dr hemagglutinin judged by hemaglutination assay: completely abolished
